Reference: BindingDB's records for doi:10.1021/acsmedchemlett.6b00363 (Philipps University Marburg, 2017)

Key:
[1] = target: Beta-2 adrenergic receptor (Homo sapiens, UniProt P07550); assay: Displacement of [3H](-)CGP12177 from human beta2-AR expressed in CHOK1 cells after 2 hrs by TopCount microscintillation counting method
[2] = target: Beta-1 adrenergic receptor (Homo sapiens, UniProt P08588); assay: Displacement of [3H](-)CGP12177 from human beta1-AR expressed in CHOK1 cells after 2 hrs by TopCount microscintillation counting method
Sequence of Beta-1 adrenergic receptor (P08588 whole entry): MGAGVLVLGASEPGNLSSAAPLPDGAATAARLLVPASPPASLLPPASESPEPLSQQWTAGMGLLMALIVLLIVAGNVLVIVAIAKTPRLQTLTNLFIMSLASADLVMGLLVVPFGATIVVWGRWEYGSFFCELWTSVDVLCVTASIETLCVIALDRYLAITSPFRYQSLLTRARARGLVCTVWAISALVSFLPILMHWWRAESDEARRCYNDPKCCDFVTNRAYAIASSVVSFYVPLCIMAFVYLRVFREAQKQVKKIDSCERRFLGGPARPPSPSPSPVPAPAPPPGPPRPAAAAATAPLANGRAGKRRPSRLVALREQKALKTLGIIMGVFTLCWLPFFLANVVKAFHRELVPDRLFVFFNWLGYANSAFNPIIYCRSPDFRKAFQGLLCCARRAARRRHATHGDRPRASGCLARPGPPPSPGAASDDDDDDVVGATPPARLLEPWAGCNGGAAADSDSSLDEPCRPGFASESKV

Sequence of Beta-2 adrenergic receptor (P07550 whole entry): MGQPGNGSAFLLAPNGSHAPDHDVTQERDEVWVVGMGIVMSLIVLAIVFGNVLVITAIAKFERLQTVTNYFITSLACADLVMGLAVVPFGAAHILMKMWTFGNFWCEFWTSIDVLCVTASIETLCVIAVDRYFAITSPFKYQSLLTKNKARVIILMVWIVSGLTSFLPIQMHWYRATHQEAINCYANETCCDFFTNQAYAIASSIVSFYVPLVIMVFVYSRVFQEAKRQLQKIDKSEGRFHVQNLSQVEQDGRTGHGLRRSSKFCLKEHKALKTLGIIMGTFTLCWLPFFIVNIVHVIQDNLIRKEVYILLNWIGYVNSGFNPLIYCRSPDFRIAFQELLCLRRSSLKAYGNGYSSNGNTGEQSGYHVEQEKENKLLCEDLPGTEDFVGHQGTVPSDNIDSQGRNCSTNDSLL

| Structure (SMILES) | Kd [1] [µM] | Kd [2] [µM] |
| --- | --- | --- |
| CN(C)CCOc1ccc2ccccc2c1C=O | – | 97.7 |
| CCCCN(C)Cc1c(O)cc(C)c2c1O/C(=C\c1cc3cc(Br)ccc3o1)C2=O | 17.8 | – |
| C[n+]1c(/C=C/Nc2ccccc2)sc2ccccc21 | – | 257 |

Further molecules by falling Kd [2], results first:

| Kd [1] [µM] | Kd [2] [µM] | Structure (SMILES) |
| --- | --- | --- |
| 25.1 | 46.8 | Cc1cc(O)c(CN(C)C)c2c1C(=O)/C(=C/c1ccccc1)O2 |
| 14.5 | 38 | Cc1cc(O)c(CN2CCCC2)c2c1C(=O)/C(=C/c1cc3ccccc3o1)O2 |
